In article PMC9236245, “Glycyrrhiza uralensis promote the metabolism of toxic components of Aconitum carmichaeli by CYP3A and alleviate the development of chronic heart failure” (PLoS ONE, 2022):
“And” between values parts separate entries of the source, which are not always exact repeats. Equal entries are not always repeated.

Key:
Format in all cases: in vivo
CHF rat model = assay: ATP, ADP and AMP in left ventricular myocardium (HPLC) of ADR-induced CHF rats; details: 5 mL/kg/D gavage 4 weeks
Method: According to reference, the rat model of CHF was established by intraperitoneal injection of ADR (2.5 mg / kg) once a week for six weeks. 6 weeks later, the rats were randomly divided into model group, Aconitum (0.3 g / mL), Glycyrrhizae combind with Aconitum (0.6 g / mL) and Captopril (1.25 mg / mL) group. Each treatment group was given 5 mL / kg / D by gavage for 4 weeks, the normal and model group were given the same volume of distilled water by gavage. After the last administration, the rats were killed by CO2 asphyxia, and the indexes were determined.
Weighed 100 mg of left ventricular myocardium of rats, cut into pieces, added 500 μL 4.2% perchloric acid, homogenized in ice bath, 3 000 r / min, 4°C for 15 min. Took 200 μL of the supernatant, added 135 μL of 1 mol / L NaOH, adjusted the pH to about 6.0, shaked and mixed, 8 000 r / min, 4°C for 10 min, and took 20 μL of the supernatant for HPLC analysis. There was a good linear relationship between the peak area measured by HPLC and the concentrations of ATP, AMP and ADP, and the content was calculated according to the standard curve.

CYP3A1 mRNA = CYP3A1 mRNA expression in rat liver after 14 days dosing (RT-PCR); details: positive induction 0.08 g/kg/D, single replicates
Description: (§1) All animal procedures, including killing, were approved by the Institutional Animal Care and Use Committee at Medical College of Shanghai University of TCM. 25 SD rats, weighing 180–200 g, were purchased from Shanghai SLAC Laboratory Animal company and fed in SPF environmental condition. The rats were randomly divided into negative control, phenobarbital positive induction (0.08 g / kg / D) and Glycyrrhiza groups with different concentrations (0.33 g / kg / D, 1 g / kg / D and 3 g / kg / D), with 5 rats in each group, intragastric administration for 14 days. The phenobarbital induced group was given intraperitoneal injection three days before treatment. The animals were killed by CO2 asphyxiation, liver microsomes were prepared and were used to detect the expression of CYP3A1 / 2 mRNA in liver tissue.
(§2) Total RNA was extracted using Trizol reagent according to the manufacturer’s instructions. 1μg of total RNA was transcribed to cDNA using the PrimeScriptTM RT Master Mix kit (TaKaRa, China). Quantitative RT-PCR was performed in a reaction volume of 20μL cDNA on ABI system (Applied Biosystems, Life Technologies). The average cycle thresholds (Ct) were employed to quantify fold-change. The 2^-△△CT method was reported to calculate relative gene expression levels.

CYP3A2 mRNA = CYP3A2 mRNA expression in rat liver after 14 days dosing (RT-PCR); details: positive induction 0.08 g/kg/D, single replicates
Description: as §1, §2

C[C@H](CS)C(=O)N1CCC[C@H]1C(=O)O [captopril, Captopril]
ADP level in left ventricular myocardium, difference vs model group (CHF rat model): -0.07185 ± 0.02716

CCC1(c2ccccc2)C(=O)NC(=O)NC1=O [Phenobarbital]
CYP3A1 mRNA (CYP3A1 mRNA): 8.832 and 7.88 and 8.097 | CYP3A2 mRNA (CYP3A2 mRNA): 3.986 and 3.344 and 3.449
